# Data: patent publication US4371536A, “β-Carbolin-3-carboxylic acid derivatives” (A/S Ferrosan, priority 1979, dated 1983)
# Tests used:
# benzodiazepin receptors = assay: Inhibition of 3H-flunitrazepam binding in vivo (mouse forebrain); details: mice, s.c.; 3H-flunitrazepam i.v. 15 min later, killed after additional 20 min; 35 min
# Description: The displacement activity of the compounds of the invention has been determined by determined the IC50 value and ED50 value.
# The ED50 value represents the dose (mg/kg) of a test substance which causes the specific binding of flunitrazepam to benzodiazepin receptors in a living brain to be reduced to 50% of the control value. Such an in vivo test is carried out as follows:
# Groups of mice are injected with the test substance at different doses and usually subcutaneously. 15 minutes later, ^3 H-flunitrazepam is given intravenously to the mice and after an additional 20 minutes, the mice are killed. Their forebrain membranes are removed and the radioactivity of the forebrain membranes is measured by scintillation counting. The ED50 value is determined from dose-response curves.
# benzodiazepine receptors = assay: Displacement of 3H-flunitrazepam binding in vitro (rat forebrain); details: 3H-flunitrazepam 1.0 nM, 0° C.
# rats [1] = assay: Motility of rats in familiar cages during rest period (awakening effect); assay type: in vivo; details: for motility versus saline control: 4 hours; for behavior during the experimental (rest) period: ethyl ester 20-100 mg/kg s.c., methylamide 20-100 mg/kg p.o., amphetamine s.c.
# Description: Normal locomotion, grooming and eating occur during the dark period and rest during the light period. If CNS stimulants are given to rats which have stayed in their cages for several hours, a pronounced hypermotility is observed during the light period (Buus Lassen, Psychopharmacologia 1973, 29, 55-64; Kallman and Isaac, Psychopharmacologia 1975, 40, 313-318).
# Psysiological saline and test substances were administered s.c. or p.o. to rats kept in familiar cages. The motility was measured for 4 hours (2 periods of 2 hours) after administrations. The motility of groups receiving test substances was compared (Student's t-test) with the motility of the saline-treated control group.
# [2] = Inhibition of motor coordination (ataxia) in mice; details: mouse, in vivo, sc, 30 minutes after s.c. administration, read-out: ED50 Ataxia (Motor incoordination)
# Description: The inhibition of motor coordination in mice was also studied 30 minutes after subcutaneous administration in accordance with a method described in the literature (Buus Lassen et al, Acta pharmacol. et toxicol., 1971, 39, 1-16).
# mice = assay: Inhibition of aggression in isolated male mice; assay type: in vivo; details: Mus musculus, sc, 0.5 h, s.c., 1/2 hour, read-out: ED50 inhibition of agression (1/2h)
# Description: The inhibition of aggression has been determined on male mice (NMR from Mollegaard, Denmark) having a weight of 20-22 g. The mice are isolated for 3 weeks in plastic cages and when two mice subsequently are brought into the same cage, they will spontaneously and almost instantaneously start fighting. […] J. Pharmacol., 1978, 47, 45-49. The compounds of the invention were administered subcutaneously and orally and the antiaggressive effect after 1/2 hour was determined. Based on the data obtained, the ED50 value has been calculated.
# rats [3] = assay: Inhibition of exploratory motility in rats (sedative effect); assay type: in vivo; details: Rattus norvegicus, sc, 0.5 h, 30 min after s.c. administration, first 10 min in novel cage
# Description: Inhibition of exploratory motility in rodents is a widely used test for sedative effect. A compound of this invention and two well known tranquilizers have been subjected to such a test.
# 30 Minutes after subcutaneous administration of physiological saline and test substances, rats were transferred to a novel cage and the motility was measured for the first 10 minutes. The ED50 is the dose inhibiting the motility by 50% as compared to the controls.
# [4] = Acute toxicity in mice (deaths within 24 hours); details: mouse, in vivo
# Description: The acute toxicity in mice was determined by recording the number of deaths within 24 hours.
Compound,"ED50 in vivo, inhibition of 3H-flunitrazepam binding (benzodiazepin receptors) [mg/kg s.c.]","IC50 in vitro, inhibition of 3H-flunitrazepam binding (benzodiazepine receptors) [µg/mL]",ED50 (mice) [mg/kg],other results
O=C(c1cc2c(cn1)[nH]c1ccccc12)N1CCCC1,> 250,3.3,–,–
O=C(c1cc2c(cn1)[nH]c1ccccc12)N1CCCCC1,> 250,0.36,–,–
CN1CCN(C(=O)c2cc3c(cn2)[nH]c2ccccc23)CC1,> 250,> 4,–,–
"CC(N)Cc1ccccc1 (centres unmarked) [Amphetamine, reference compound]",–,–,–,"motility versus saline control (rats [1]; 0.5-5 mg/ig s.c.): produced a significant hypermotility; behavior during the experimental (rest) period (rats [1]): continuous, stereotyped sniffing, rearing and licking on the cage walls; behavior during the experimental (rest) period (rats [1]; listed as amphetamine): induced an abnormal behavior which never occurs in saline-treated control rats"
"CNC1=Nc2ccc(Cl)cc2C(c2ccccc2)=[N+]([O-])C1 [Chlordiazepoxide, reference compound]",–,–,45,TD50 at 0.5 h [2]: 50 mg/kg; ED50 (rats [3]): 1.2 mg/kg; LD50 at 24 h [4]: 700 mg/kg
"CN1C(=O)CN=C(c2ccccc2)c2cc(Cl)ccc21 [Diazepam, reference compound]",–,–,3,motility versus saline control (rats [1]; 10-20 mg/kg s.c.): did not influence motility; ED50 (rats [3]): 0.4 mg/kg
"CCN(CC)C(=O)c1cc2c(cn1)[nH]c1ccccc12 [N C2 H5 (C2 H5), β-carbolin-3-carboxylic acid diethylamide]",82,4.3,35,–
"CN(C(=O)c1cc2c(cn1)[nH]c1ccccc12)c1ccccc1 [N CH3 (C6 H5), N-methyl-N-phenyl-β-carbolin-3-carboxamide]",> 250,> 4,–,–
"CCNC(=O)c1cc2c3ccccc3n(C(=O)OCC)c2cn1 [NH(C2 H5), COOC2 H5, 9-carbethoxy β-carbolin-3-carboxylic acid, ethylamide]",> 100,0.16,–,–
"CCNC(=O)c1cc2c(cn1)[nH]c1ccccc12 [NH(C2 H5), β-carbolin-3-carboxylic acid N-ethylamide]",42,0.11,18,TD50 at 0.5 h [2]: > 100 mg/kg; LD50 at 24 h [4]: > 250 mg/kg
"O=C(NC1CC1)c1cc2c(cn1)[nH]c1ccccc12 [NH(C3 H5), N'-cyclopropyl-β-carbolin-3-carboxamide]",38,0.044,–,–
O=C(NCc1ccccc1)c1cc2c(cn1)[nH]c1ccccc12 [NH(CH2 C6 H5)],> 250,0.017,–,–
O=C(NCCO)c1cc2c(cn1)[nH]c1ccccc12 [NH(CH2 CH2 OH)],56,0.2,–,–
NC(=O)CNC(=O)c1cc2c(cn1)[nH]c1ccccc12 [NH(CH2 CONH2)],> 250,0.92,–,–
CCOC(=O)CNC(=O)c1cc2c(cn1)[nH]c1ccccc12 [NH(CH2 COOC2 H5)],> 250,0.16,–,–
"CNC(=O)c1cc2c(cn1)[nH]c1ccccc12 [NH(CH3), β-carbolin-3-carboxylic acid methylamide]",25,0.1,–,"motility versus saline control (rats [1]; 20-100 mg/kg p.o., Student's t-test): increased the motility significantly (P<0.001); behavior during the experimental (rest) period (rats [1]): appeared more alert than the controls during the experimental period and showed more spells of locomotion, eating and grooming"
CC(C)NC(=O)c1cc2c(cn1)[nH]c1ccccc12 [NH(iso-C3 H7)],23,0.15,75,–
"CCOC(=O)c1cc2c(cn1)[nH]c1ccccc12 [OC2 H5, β-carbolin-3-carboxylic acid ethyl ester]",60,0.0014,4,"motility versus saline control (rats [1]; 20-100 mg/kg s.c., Student's t-test): increased the motility significantly (P<0.001); behavior during the experimental (rest) period (rats [1]): appeared more alert than the controls during the experimental period and showed more spells of locomotion, eating and grooming; TD50 at 0.5 h [2]: > 100 mg/kg; ED50 (rats [3]): > 100 mg/kg; LD50 at 24 h [4]: > 500 mg/kg"
"CCCCCOC(=O)c1cc2c(cn1)[nH]c1ccccc12 [OC5 H11, n-pentyl β-carbolin-3-carboxylate]",> 250,0.012,50,–
